Measured values from ChEMBL document CHEMBL5247651, “Oxadiazolopyridine Derivatives as Efficacious Mitochondrial Uncouplers in the Prevention of Diet-Induced Obesity” (J Med Chem, 2023).
Values after ≈ are worked out from the molar mass of the structure shown. Active and inactive are the calls of the source. The rule behind the calls is not given here.

Columns and labels:
Mus musculus [1] = assay: Anti-obesity activity in high-fat diet induced obesity C57BL/6 mouse model assessed as increase in carbon dioxide production at 130 mg/kg, po measured upto 4 hrs by indirect calorimetric analysis; format: functional, organism-based
[2] = Induction of mitochondrial uncoupling activity in rat L6 cells assessed as increase in oxygen consumption rate measured after 90 mins by agilent Seahorse XF analyzer; format: functional, cell-based
[3] = Half life in C57BL/6 mouse at 10 mg/kg, po administered via gavage measured upto 24 hrs by LC/MS-MS analysis; format: ADME, organism-based; conditions: in vivo
[4] = Cmax in Swiss albino mouse at 10 mg/kg, po administered via gavage measured upto 24 hrs by LC/MS-MS analysis; format: ADME, organism-based; set-up: time < 24 hrs, dose 10 mg/kg, route po; conditions: in vivo
[5] = Induction of mitochondrial respiration in rat L6 cells assessed as fold increase in basal respiration at 25 uM followed by BAM15 addition; format: functional
L6 [6] = assay: Induction of mitochondrial respiration in rat L6 cells assessed as fold increase in basal respiration at 25 uM in presence of oligomycin; format: functional, cell-based
L6 [7] = assay: Induction of mitochondrial respiration in rat L6 cells assessed as fold increase in basal respiration at 25 uM in presence of antimycin and rotenone; format: functional, cell-based
[8] = Solubility of compound at pH 7.4; format: physicochemical; conditions: buffer
[9] = Apparent permeability across apical to basolateral side in human Caco-2 cells; format: ADME, cell-based
[10] = Apparent permeability across basolateral to apical side in human Caco-2 cells; format: ADME, cell-based
[11] = Cmax in C57BL/6 mouse at 1 mg/kg, iv measured upto 24 hrs by LC/MS-MS analysis; format: ADME, organism-based; set-up: time < 24 hrs, dose 1 mg/kg, route iv; conditions: in vivo
[12] = Half life in C57BL/6 mouse at 1 mg/kg, iv measured upto 24 hrs by LC/MS-MS analysis; format: ADME, organism-based; conditions: in vivo
[13] = Observed apparent volume of distribution in C57BL/6 mouse at 1 mg/kg, iv measured upto 24 hrs by LC/MS-MS analysis; format: ADME, organism-based; conditions: in vivo, read-out: Vz
[14] = Observed volume of distribution at steady state in C57BL/6 mouse at 1 mg/kg, iv measured upto 24 hrs by LC/MS-MS analysis; format: ADME, organism-based; conditions: in vivo, read-out: Vdss
[15] = Observed apparent volume of distribution in C57BL/6 mouse at 10 mg/kg, po measured upto 24 hrs by LC/MS-MS analysis; format: ADME, organism-based; conditions: in vivo
Mus musculus [16] = assay: Anti-obesity activity in high-fat diet induced obesity C57BL/6 mouse model assessed as increase in energy expenditure at 130 mg/kg, po measured upto 4 hrs by indirect calorimetric analysis; format: functional, organism-based
Mus musculus [17] = assay: Anti-obesity activity in high-fat diet induced obesity C57BL/6 mouse model assessed as increase in carbohydrate oxidation at 130 mg/kg, po measured upto 4 hrs by indirect calorimetric analysis; format: functional, organism-based
Mus musculus [18] = assay: Anti-obesity activity in high-fat diet induced obesity C57BL/6 mouse model assessed as increase in locomotory activity at 130 mg/kg, po measured upto 4 hrs by indirect calorimetric analysis; format: functional, organism-based
Mus musculus [19] = assay: Anti-obesity activity in high-sugar western diet induced obesity C57BL/6j mouse model assessed as food consumption at 130 mg/kg per day, po administered for 14 days ( Rvb = 2.5 +/- 0.5 g/day per mouse); format: functional; conditions: time 14 day
Mus musculus [20] = assay: Anti-obesity activity in high-sugar western diet induced obesity C57BL/6j mouse model assessed as decrease in body weight at 130 mg/kg per day, po administered for 14 days; format: functional, organism-based; conditions: time 14.0 day
Mus musculus [21] = assay: Anti-obesity activity in high-sugar western diet induced obesity C57BL/6j mouse model assessed as decrease in fat-free lean mass at 130 mg/kg per day, po administered measured after 2 weeks by EchoMRI analysis; format: functional; set-up: scale not given: the % may be the effect or the level left
Mus musculus [22] = assay: Anti-obesity activity in high-sugar western diet induced obesity C57BL/6j mouse model assessed as decrease in glucose level AUC at 130 mg/kg per day, po administered measured after 10 days in presence of glucose by glucose tolerance test; format: functional, organism-based; conditions: time 10.0 day
Mus musculus [23] = assay: Anti-obesity activity in high-sugar western diet induced obesity C57BL/6j mouse model assessed as decrease in serum glucose level at 130 mg/kg per day, po administered measured after 2 weeks; format: functional, organism-based
Mus musculus [24] = assay: Anti-obesity activity in high-sugar western diet induced obesity C57BL/6j mouse model assessed as decrease in insulin level at 130 mg/kg per day, po administered measured after 2 weeks; format: functional, organism-based
[25] = Drug distribution in fasted C57BL/6j mouse liver at 130 mg/kg, po by LC-MS/MS analysis; format: ADME, organism-based; conditions: in vivo
[26] = Drug distribution in fasted C57BL/6j mouse brown adipose tissue at 130 mg/kg, po by LC-MS/MS analysis; format: ADME, organism-based; conditions: in vivo
[27] = Drug distribution in fasted C57BL/6j mouse […] white adipose tissue at 130 mg/kg, po by LC-MS/MS analysis; format: ADME, organism-based; conditions: in vivo
[28] = Drug distribution in fasted C57BL/6j mouse liver at 10 mg/kg, po measured after 2 hrs by LC-MS/MS analysis; format: ADME, organism-based; conditions: in vivo
[29] = Drug distribution in fasted C57BL/6j mouse brown adipose tissue at 10 mg/kg, po measured after 2 hrs by LC-MS/MS analysis; format: ADME, organism-based; conditions: in vivo
Mus musculus [30] = assay: Anti-obesity activity in high-sugar western diet induced obesity C57BL/6j mouse model assessed as reversal of fat mass gain at 130 mg/kg per day, po administered via gavage daily measured after 3 weeks; format: functional, organism-based
Mus musculus [31] = assay: Anti-obesity activity in high-sugar western diet induced obesity C57BL/6j mouse model assessed as decrease in retroperitoneal fat pad weight at 130 mg/kg per day, po administered via gavage daily measured after 3 weeks; format: functional, organism-based
Mus musculus [32] = assay: Anti-obesity activity in high-sugar western diet induced obesity C57BL/6j mouse model assessed as decrease in subcutaneous fat pad weight at 130 mg/kg per day, po administered via gavage daily measured after 3 weeks; format: functional, organism-based
Mus musculus [33] = assay: Anti-obesity activity in high-sugar western diet induced obesity C57BL/6j mouse model assessed as decrease in muscle weight at 130 mg/kg per day, po administered via gavage daily measured after 3 weeks; format: functional, organism-based
Mus musculus [34] = assay: Anti-obesity activity in high-sugar western diet induced obesity C57BL/6j mouse model assessed as effect on fecal triglyceride level at 130 mg/kg per day, po administered via gavage daily measured after 3 weeks by colorimetric analysis; format: functional, organism-based
Mus musculus [35] = assay: Anti-obesity activity in high-sugar western diet induced obesity C57BL/6j mouse model assessed as effect on free fatty acid level at 130 mg/kg per day, po administered via gavage daily measured after 3 weeks by fluorometric analysis; format: functional, organism-based
Mus musculus [36] = assay: Anti-obesity activity in high-sugar western diet induced obesity C57BL/6j mouse model assessed as decrease in rectal temperature at 130 mg/kg per day, po administered via gavage daily measured after 1 hr at day 11; format: functional, organism-based
Mus musculus [37] = assay: Anti-obesity activity in C57BL/6j mouse assessed as increase in glucose level at 130 mg/kg per day, po administered via gavage daily measured after 3 weeks by glucose tolerance test; format: functional, organism-based
Mus musculus [38] = assay: Anti-obesity activity in C57BL/6j mouse assessed as effect on plasma free fatty acid level at 130 mg/kg per day, po administered via gavage daily measured after 3 weeks; format: functional, organism-based

Oc1nc2nonc2cc1Nc1c(F)c(F)c(F)c(F)c1F
Activity (Mus musculus [1]): Active | EC50 [2]: 17.1 µM | pEC50 [2]: 4.8 | t1/2 [3]: 1.2 h | Cmax [4]: 57 µM | fold change (FC) [5]: 3 | Activity (L6 [6]): Active | Activity (L6 [7]): inactive | solubility [8]: 18.6 µM (≈ 5.92 µg/mL) | Papp A→B [9]: 12.4 ×10⁻⁶ cm/s | Papp B→A [10]: 1.6 ×10⁻⁶ cm/s | Cmax [11]: 16 µM | half-life [12]: 69 min | Vd [13]: 0.07 L/kg | Vd [14]: 0.06 L/kg | Vz [15]: 0.74 L/kg | Activity (Mus musculus [16]): Active | Activity (Mus musculus [17]): Active | Activity (Mus musculus [18]): inactive | Activity (Mus musculus [19]): 2.5 g/day | Activity (Mus musculus [20]): Active | Activity (Mus musculus [21]): 4% | Activity (Mus musculus [22]): Active | Activity (Mus musculus [23]): Active | Activity (Mus musculus [24]): Active | Drug uptake [25]: Active | Drug uptake [26]: Active | Drug uptake [27]: Active | Drug uptake [28]: Active | Drug uptake [29]: Active | Activity (Mus musculus [30]): Active | Activity (Mus musculus [31]): inactive | Activity (Mus musculus [32]): inactive | Activity (Mus musculus [33]): inactive | Activity (Mus musculus [34]): inactive | Activity (Mus musculus [35]): inactive | Activity (Mus musculus [36]): Active | Activity (Mus musculus [37]): inactive | Activity (Mus musculus [38]): inactive
